# Data: patent publication US10342796B2, “Acrylanilide derivative, preparation method, and applications thereof in pharmacy” (Ancureall Pharmaceutical (Shanghai) Co., Ltd., priority 2015, dated 2019)
# Where two headings read alike, the source gives them in different places.
# Key:
# Assay in all cases: Growth inhibition GI50 in vitro (CCK8/MTT, 72 h)
# Assay type in all cases: cell-based
# K562 (BCR-ABL) = details: Homo sapiens
# Description: Human leukemia cell line K562 (expressing BCR-ABL fusion protein) (ATCC) was cultured with 1×RPMI1640 complete medium (supplement with 10% FBS).
# (§1) The suspension cells were collected by centrifugation. The supernatant was discard and the cell pellet was resuspended and counted. Different cell concentrations (5˜10×10^4 cells/mL) were prepared according to the growth cycle of each cell line and then seeded on a 96-well plate (Corning), 100 μL/well. The cells were incubated over night at 37° C., 5% CO2. The compounds were added to the cells on the second day with 2 wells in parallel. The final concentration of organic solvent shall not exceed 1%. The cells were continually incubated for 72 h, and then subjected to MTT assay.
# (§2) The present compounds and the reference compounds were dissolved with DMSO (Sigma), respectively. […] The storage concentration of compounds was 10 mM and kept at −20° C. They were diluted by 2 times or 10 times with serial dilution before using.
# (§3) Dojindo CCK8 reagent kit was used as MTT assay. […] FC meter was used as microplate reader.
# (§4) Adherent cell culture medium was discard and immediately replaced with fresh prepared medium which contains 10% CCK8 reagent (100 μL/well). For the suspension cells, CCK8 was directly added to 10% of the final concentration. The cells were continually incubated for 1˜4 h. When the color of control wells turned to dark yellow, the absorption value was measured at OD450 nm. The cell growth rate was calculated according to the following formula: cell growth rate (%)=100*(T−T0)/(C−T0), T=optical density of drug treatment cell well—optical density of blank control well; T0=optical density of cell well before drug treatment—optical density of blank control well; C=optical density of cell well of solvent control group—optical density of blank control well. […] The experiment was independently repeated 1˜3 times, and subject to biological statistical analysis.
# (§5) Growth inhibition assay was conducted in the cell lines shown Table 14 with the different oncogene mutations. Each compound started at 1000 nM as an initial concentration and was diluted by 2 times with serial dilution to 0.03 nM.
# [1] = test system: HCT116 (EGFR wt, Kras G13D); details: Homo sapiens, HCT-116
# Description: as §1, §2, §3, §4, §5
# H2228 (EML4-ALK) = details: Homo sapiens, NCI-H2228, H2228, EGFR wt
# MKN-45 (Met amp) = details: Homo sapiens, MKN-45, EGFR wt
# Description: (§6) Human gastric cancer cell line MKN-45 (ATCC) and NSCLC cell line NCI-H1993 (ATCC) were cultured with 1×RPMI1640 complete medium which was supplement with 10% FBS, respectively.
# as §1, §2, §3, §4, §5
# H1993 (Met amp) = details: Homo sapiens, NCI-H1993, H1993, EGFR wt
# Description: as §6, §1, §2, §3, §4, §5
# ZR-75-30 (Her2 amp) = details: Homo sapiens, ZR-75-30, EGFR wt
# H2170 (Her2 amp) = details: Homo sapiens, NCI-H2170, H2170, EGFR wt
# HCC1954 (Her2 amp) = details: Homo sapiens, HCC1954, EGFR wt
# [2] = test system: A375 (EGFR wt, BRAF V600E); details: Homo sapiens, A-375
# Text: EGFR wild type cell lines: human epidermal cancer cell line A431 (EGFR WT, amplification and high expression, from Shanghai Cell Bank of Chinese Academy of Sciences and ATCC), NSCLC cell lines NCI-H460 (EGFR WT, Kras G61H and PI3KCA E545K mutants, ATCC) and NCI-H1299 (EGFR WT, ATCC), melanoma cell line A375 (EGFR WT and BRAF V600E mutant, from Shanghai Cell Bank of Chinese Academy of Sciences, ATCC), human lung cancer cell line NCI-H292 (EGFR WT, from human lung mucoepidermoid carcinoma/lymphatic metastasis, purchased from Shanghai Cell Bank of Chinese Academy of Sciences) were cultured with 1×RPMI1640 complete medium which was supplement with 10% FBS. NSCLC cell line A549 (EGFR WT and Kras G12S mutant, from Shanghai Cell Bank of Chinese Academy of Sciences) was cultured with 1×Ham'S F12K complete medium which was supplement with 10% FBS, 1% double-antibiotics and 2 mM glutamine.
# as §1, §2, §3, §4, §5
# Kasumi-1 (Kit N822K) = details: Homo sapiens
# Description: Kasumi-1 is a leukemia cell line positively expressing c-Kit N822K mutant Abnormal variation of c-Kit often appears in cancer patients. Kasumi-1 cell line was cultured with 1×RPMI1640 complete medium (supplement with 10% FBS).
# as §1, §2, §3, §4, §5
# [3] = HCT116, EGFR wt, Kras G13D, read-out: GI50
# [4] = A375, EGFR wt, BRAF V600E, read-out: GI50
GI50 (K562 (BCR-ABL)) [nM],GI50 (H2228 (EML4-ALK)) [nM],GI50 (MKN-45 (Met amp)) [nM],GI50 (H1993 (Met amp)) [nM],GI50 (H2170 (Her2 amp)) [nM],GI50 (HCC1954 (Her2 amp)) [nM],"GI50 [1, 3] [nM]","GI50 [2, 4] [nM]",SMILES,GI50 [1] [nM],GI50 (ZR-75-30 (Her2 amp)) [nM],GI50 [2] [nM],GI50 (Kasumi-1 (Kit N822K)) [nM]
> 1000,> 500,> 1000,> 1000,12.6,375,> 1000,> 1000,"C=CC(=O)Nc1cc(Nc2nccc(Nc3cccc(Cl)c3)n2)c(OC)cc1N(C)CCN(C)C [Compound 2, N-(5-(4-(3-chloro-phenylamino)-pyrimidin-2-ylamino)-2-(2-(dimethylamino-ethyl)-methyl-amino)-4-methoxyl-phenyl)-acrylamide]",,6,,> 1000
> 1000,> 500,> 1000,> 1000,19.5,312,> 1000,> 1000,"C=CC(=O)Nc1cc(Nc2nccc(Nc3ccc(OCc4ccccn4)c(Cl)c3)n2)c(OC)cc1N(C)CCN(C)C [Compound 18, N-(5-(4-(3-chloro-4-(pyridin-2-methoxyl)phenylamino)pyrimidin-2-ylamino)-2-((2-(dimethylamino)ethyl)(methyl)amino)-4-methoxyl-phenyl)-acrylamide]",,2.1,,> 1000
> 1000,> 500,500,> 1000,14.6,312,> 1000,> 1000,"C=CC(=O)Nc1cc(Nc2ncc(Cl)c(Nc3ccc(OCc4ccccn4)c(Cl)c3)n2)c(OC)cc1N(C)CCN(C)C [Compound 19, N-(5-(5-chloro-4-(3-chloro-4-(pyridin-2-methoxyl)phenylamino)-pyrimidin-2-ylamino)-2-((2-(dimethylamino)ethyl)(methyl)amino)-4-methoxyl-phenyl)-acrylamide]",,2.1,,> 1000
> 1000,> 500,> 1000,> 1000,9.4,375,> 1000,> 1000,C=CC(=O)Nc1cc(Nc2nccc(-n3cnc4ccccc43)n2)c(OC)cc1N(C)CCN(C)C [Compound 106],,12,,> 1000
> 1000,> 500,465,> 1000,4.8,37.5,> 1000,465,"C=CC(=O)Nc1cc(Nc2ncnc(Nc3cccc(F)c3)n2)c(OC)cc1N(C)CCN(C)C [Compound 114, N-(5-(4-(3-fluoro-phenylamino)-[1,3,5]triazin-2-ylamino)-2-((2-dimethylamino-ethyl)-methyl-amino)-4-methoxyl-phenyl)-acrylamide]",,1.1,,< 100
> 1000,> 500,465,,6.8,37.5,> 1000,465,C=CC(=O)Nc1cc(Nc2ncnc(Nc3cccc(Br)c3)n2)c(OC)cc1N1CCC(N2CCCC2)CC1 [Compound 118],,2.6,,< 100
> 1000,> 500,> 1000,> 1000,4.8,26.5,> 1000,> 1000,"C=CC(=O)Nc1cc(Nc2cc(Nc3ccc(F)c(Cl)c3)ncn2)c(OC)cc1N(C)CCN(C)C [Compound 140, N-(5-(6-(3-chloro-4-fluoro-phenylamino)-pyrimidin-4-ylamino)-2-((2-dimethylamino-ethyl)-methyl-amino)-4-methoxyl-phenyl)-acrylamide]",,1.5,,> 1000
> 1000,> 500,> 1000,> 1000,4.8,26.5,> 1000,> 1000,"C=CC(=O)Nc1cc(Nc2cc(Nc3ccc(F)c(Cl)c3)ncn2)c(OC)cc1N1CCN(C2CCN(C)CC2)CC1 [Compound 147, N-(5-(6-(3-chloro-4-fluoro-phenylamino)-pyrimidin-4-ylamino)-4-methoxyl-2-(4-(1-methylpiperidin-4-yl)-piperazin-1-yl)-phenyl)-acrylamide]",,1.5,,> 1000
> 1000,> 500,500,> 1000,12.5,156,> 1000,> 1000,C=CC(=O)Nc1cc(Nc2cc(-c3cn(C(C)C)c4ccccc34)ncn2)c(OC)cc1N(C)CCN(C)C [Compound 183],,6,,> 1000

SMILES,GI50 (K562 (BCR-ABL)) [nM],GI50 (H2228 (EML4-ALK)) [nM],GI50 (MKN-45 (Met amp)) [nM],GI50 (H1993 (Met amp)) [nM],GI50 (H2170 (Her2 amp)) [nM],GI50 (HCC1954 (Her2 amp)) [nM],"GI50 [1, 3] [nM]","GI50 [2, 4] [nM]",GI50 [1] [nM],GI50 (ZR-75-30 (Her2 amp)) [nM],GI50 [2] [nM],GI50 (Kasumi-1 (Kit N822K)) [nM]
"C=CC(=O)Nc1cc(Nc2nccc(-c3cn(C)c4ccccc34)n2)c(OC)cc1N(C)CCN(C)C [AZD9291, reference compound]",> 1000,> 500,> 1000,> 1000,117,> 1000,,,> 1000,31,> 1000,> 1000
